According to patent US11434267B2, “Peptides having reduced toxicity that stimulate cholesterol efflux” (The Regents of the University of California, priority 2013, dated 2022):
Non-standard residues stand in square brackets, D forms with d. No end group written: not given here. Cit = NC(=O)NCCC[C@H](N)C(=O)O

Key:
[1] = test system: C57Bl/6 mice; assay: Glucose tolerance test in fasted C57Bl/6 mice after single IP peptide injection; assay type: in vivo, mouse; conditions: single IP 300 mg/kg, 2 g/kg glucose IP
Protocol: Peptide may additionally be screened for the ability to lower glucose using methods illustrated in the EXAMPLES section, e.g., Example 31. For example, the ability to lower glucose can be evaluated using ing animal models, such as mice or rats. Mice, e.g., C57Bl/6 mice, fed a normal lab chow diet are injected IP with a peptide that is undergoing evaluation, e.g., at a does of 300 mg/kg, and the glucose levels in the blood are measured at a time period, e.g. 6 hours, following injection and compared to the levels of blood glucose in a control animal that received PBS. Alternatively, peptides may be screened for the ability to lower glucose as illustrated in Example 36. For example, 300 mg/kg peptide injected IP into to fasted animals and 3 h thereafter a glucose tolerance test is performed by injecting 2 g/kg glucose during which the glucose concentration is followed for 120 minutes. Peptides that have glucose lowering activity show statistically significant lowered glucose relative to controls. Typically, peptides lower glucose by at least 5%, often at least 10% or greater, relative to controls. Peptides may also be evaluated for glucose-lowering activity in animal models of obesity, e.g., DIO mice. Further, peptides may be evaluated for the ability to improve sensitivity to insulin, e.g., as described in Example 31 of the EXAMPLES section.
This example illustrates that CS6253 and T6991-2 lower blood glucose concentrations upon glucose challenge in C57Bl/6 mice (FIG. 51). Fasted male C57Bl/6 mice on chow diet received a single intraperitonel (IP) injection of either vehicle alone or 300 mg/kg of lipid-free peptide, as described for safety studies in FIG. 5. Following treatment, a glucose tolerance test was performed via IP injection of 2 g/kg glucose. Blood was collected from the tail vein at the indicated times and blood glucose measured using a glucometer. Panels A and B— Blood glucose concentrations expressed as mass values over time following glucose challenge, with corresponding area under the curve, respectively. (Bar graph, panel B, bars from left to right are PBS, CS6253, T699102, 2, 4, 5, 6, and 9, respectively) Values are means±SD, n=4 mice per group.

[2] = molecular target: T1, ABCA1 (Mus musculus, UniProt P41233); assay: ABCA1 protein stabilization in J774 macrophages (Western blot); assay type: cell-based; conditions: J774 after cAMP, 6 h chase
T1 construct: treated (18 h) with a cAMP analog to induce ABCA1 protein expression; endogenous in cells; host or cells: J774 macrophages
T1 sequence (P41233 whole entry): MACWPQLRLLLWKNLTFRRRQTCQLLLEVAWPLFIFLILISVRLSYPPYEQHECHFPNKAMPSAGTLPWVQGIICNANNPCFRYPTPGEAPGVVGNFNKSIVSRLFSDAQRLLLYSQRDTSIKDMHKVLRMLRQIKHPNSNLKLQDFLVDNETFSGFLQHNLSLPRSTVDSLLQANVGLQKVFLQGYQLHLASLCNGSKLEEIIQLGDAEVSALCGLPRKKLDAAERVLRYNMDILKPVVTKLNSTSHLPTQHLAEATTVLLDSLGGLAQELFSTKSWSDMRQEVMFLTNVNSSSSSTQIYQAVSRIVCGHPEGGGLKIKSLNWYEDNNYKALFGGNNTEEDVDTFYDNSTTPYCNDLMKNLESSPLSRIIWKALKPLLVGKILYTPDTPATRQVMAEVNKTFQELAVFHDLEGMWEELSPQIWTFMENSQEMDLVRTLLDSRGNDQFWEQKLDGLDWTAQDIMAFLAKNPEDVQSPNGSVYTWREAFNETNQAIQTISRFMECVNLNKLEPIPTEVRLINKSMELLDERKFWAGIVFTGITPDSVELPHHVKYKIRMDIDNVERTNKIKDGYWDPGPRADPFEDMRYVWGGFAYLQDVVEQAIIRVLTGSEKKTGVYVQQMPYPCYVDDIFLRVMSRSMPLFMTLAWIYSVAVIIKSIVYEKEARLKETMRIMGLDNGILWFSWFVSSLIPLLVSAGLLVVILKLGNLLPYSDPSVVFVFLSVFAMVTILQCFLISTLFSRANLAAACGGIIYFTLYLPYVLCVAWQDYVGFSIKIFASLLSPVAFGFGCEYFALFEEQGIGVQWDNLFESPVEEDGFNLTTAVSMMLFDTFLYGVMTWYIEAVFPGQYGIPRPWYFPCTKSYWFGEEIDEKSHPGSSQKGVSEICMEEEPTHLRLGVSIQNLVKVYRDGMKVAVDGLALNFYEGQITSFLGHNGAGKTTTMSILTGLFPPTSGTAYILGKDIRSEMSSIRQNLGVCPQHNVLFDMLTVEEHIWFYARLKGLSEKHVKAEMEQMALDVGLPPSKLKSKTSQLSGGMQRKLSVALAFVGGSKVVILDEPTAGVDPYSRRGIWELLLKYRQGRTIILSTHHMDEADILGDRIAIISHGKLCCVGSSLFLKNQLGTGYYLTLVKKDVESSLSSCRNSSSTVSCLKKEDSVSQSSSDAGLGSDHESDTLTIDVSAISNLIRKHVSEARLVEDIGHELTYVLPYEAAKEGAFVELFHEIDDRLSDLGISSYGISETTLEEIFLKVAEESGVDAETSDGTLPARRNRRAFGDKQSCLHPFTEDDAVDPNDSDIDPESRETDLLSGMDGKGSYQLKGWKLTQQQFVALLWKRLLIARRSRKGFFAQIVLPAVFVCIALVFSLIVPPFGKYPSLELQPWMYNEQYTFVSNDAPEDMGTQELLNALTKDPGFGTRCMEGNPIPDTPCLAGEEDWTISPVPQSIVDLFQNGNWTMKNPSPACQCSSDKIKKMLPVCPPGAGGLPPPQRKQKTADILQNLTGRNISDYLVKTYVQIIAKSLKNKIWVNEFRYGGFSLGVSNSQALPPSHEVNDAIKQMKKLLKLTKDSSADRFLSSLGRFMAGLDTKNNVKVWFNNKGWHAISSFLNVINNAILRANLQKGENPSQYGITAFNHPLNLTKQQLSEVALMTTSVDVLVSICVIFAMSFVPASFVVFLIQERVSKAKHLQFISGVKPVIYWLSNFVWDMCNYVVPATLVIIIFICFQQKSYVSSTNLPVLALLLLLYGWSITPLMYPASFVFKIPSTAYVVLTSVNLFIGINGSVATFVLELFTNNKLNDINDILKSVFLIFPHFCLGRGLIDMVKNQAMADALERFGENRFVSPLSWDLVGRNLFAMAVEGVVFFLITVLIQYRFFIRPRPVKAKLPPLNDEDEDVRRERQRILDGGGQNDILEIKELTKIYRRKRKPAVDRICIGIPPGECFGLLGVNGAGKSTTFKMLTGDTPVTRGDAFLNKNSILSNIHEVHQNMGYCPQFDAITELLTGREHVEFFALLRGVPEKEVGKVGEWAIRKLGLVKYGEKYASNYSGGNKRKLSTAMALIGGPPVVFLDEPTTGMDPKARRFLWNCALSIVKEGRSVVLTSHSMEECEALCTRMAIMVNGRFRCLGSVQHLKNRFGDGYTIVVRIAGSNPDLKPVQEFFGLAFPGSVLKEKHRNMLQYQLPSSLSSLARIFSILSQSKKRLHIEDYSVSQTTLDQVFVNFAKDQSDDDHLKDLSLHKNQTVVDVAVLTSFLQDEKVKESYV
Protocol: In some embodiments, the stabilization of ABCA is measured by direct measurement of ABCA (e.g., ABCA protein, or nucleic acid) using a cell based assay. Cell based assays can be performed in any cells in which ABCA is expressed (e.g., J774 macrophages), including cells which have been transfected with ABCA (e.g. HeLa cells). Any cell type can be used. For example, J774 macrophages can be used to assess relative ABCA1 protein levels in the presence and absence of polypeptides of the invention. The cells are first contacted with a compound that will induce ABCA (e.g., cAMP or a cAMP analogue such as, 8-bromo-cAMP) to upregulate ABCA (e.g., ABCA1) expression, then exposed to […] polypeptides of the invention in the absence of the cAMP stimulus to evaluate whether ABCA1 protein was stabilized or degraded. Relative levels of ABCA1 protein can be assessed using any means known in the art including, e.g., immunoblot analysis of cell membranes (Oram et al., J. Biol. Chem., 278:52379-52385 (2003)) or hybridization of nucleic acid probes to ABCA mRNA.
(FIG. 29). J774 macrophages were used for experiments. Panel A—Cells were labeled (48 h) with 3H cholesterol and treated with (right bars) and without (left bars) a cAMP analog to modulate ABCA1 expression. […]

ABCA1 protein level (stabilization) [2] | Substance | blood glucose upon glucose challenge [1]
– | T8212-6: CS6253 analog with combination of leucine and isoleucine residues (L→I) (EV[Cit]SKIEEWLAAI[Cit]EIAEELLARLKS) [Peptide T8212-6] | poorly active in lowering blood glucose responses
– | T8212-2: CS6253 analog with combination of leucine and isoleucine residues (L→I) (EV[Cit]SKLEEWLAAI[Cit]ELAEELLARLKS) [Peptide T8212-2] | poorly active in lowering blood glucose responses
maintained at high-levels | apoA-I: full-length native apolipoprotein A-I, lipid-free | –
– | T8212-9: CS6253 analog with combination of leucine and isoleucine residues (L→I) (EV[Cit]SKIEEWIAAI[Cit]EIAEEIIARLKS) [Peptide T8212-9] | poorly active in lowering blood glucose responses
– | T8212-5: CS6253 analog with combination of leucine and isoleucine residues (L→I) (EV[Cit]SKIEEWIAAL[Cit]ELAEEILARLKS) [Peptide T8212-5] | poorly active in lowering blood glucose responses
– | T8212-4: CS6253 analog with combination of leucine and isoleucine residues (L→I) (EV[Cit]SKLEEWIAAL[Cit]ELAEEILARLKS) [Peptide T8212-4] | poorly active in lowering blood glucose responses
